# From paper PMC8322070, “A novel orally active HDAC6 inhibitor T-518 shows a therapeutic potential for Alzheimer’s disease and tauopathy in mice” (Scientific Reports, 2021)
# Experiments:
# [1] = tested on: HDAC1‒5, 7‒9, and 11; assay: HDAC selectivity panel (Reaction Biology Corporation); format: biochemical; conditions: up to 10 μM; heat map Fig. 2A
# [2] = tested on: tubulin acetylation in WT mice or HDAC6 KO mice; assay: HDAC6 dependency of in vivo tubulin acetylation, WT and HDAC6 KO mice; parameters: species or system mouse; conditions: 300 mg/kg
# Text: HDAC6 knockout (KO) mice were generated by deletion of a ~ 1.7-kbp region including exon15–20 of the Hdac6 gene using fertilized C57BL/6J eggs and the CRISPR-Cas9 system. […] Male hemizygous KO mice were selected by qPCR detection of the Hdac6 intron16 sequence (Figure S2A). The qPCR primers and probe sequences were as follows: FW primer; 5′-[…]-3′, RV primer; 5′-[…]-3′ and MGB probe; 5′-CCAGGCCATGTTTT-3′.
# (§1) T-518, ACY-738, Ricolinostat, and Tubastatin A were synthesized in Takeda. For in vitro cellular experiments, the compounds were solubilized with DMSO and diluted in the culture medium at the indicated concentrations. For in vivo experiments, the compound was reconstituted in 0.5% methylcellulose and administered orally at the indicated doses. After administration, mouse hippocampus was isolated and homogenized in RIPA extraction buffer (50 mM Tris–HCl, 150 mM NaCl, 1% NP-40, 0.5% sodium deoxycholate, and 0.1% SDS, pH 8.0) supplemented with protease and phosphatase inhibitor cocktail (Thermo Fischer, Waltham, MA, USA). The homogenate was centrifuged at 10,000g for 15 min and the supernatant was taken as the RIPA-soluble fraction.
# Acetylated α-tubulin and total tubulin levels were measured by sandwich ELISA. […]
# [3] = tested on: tubulin acetylation in mouse primary neural cultures; assay: Tubulin acetylation in mouse primary neural culture (ELISA); format: cell-based; conditions: 24 h
# Method: as §1
# Primary cortical neurons were prepared from E14 C57BL/6J mouse embryos (CLIEA Japan, Inc., Tokyo, Japan) using papain-containing Neuron Dissociation Solutions (Fujifilm Wako, Tokyo, Japan). Isolated cells were suspended in Neurobasal Medium containing B-27 (Thermo Fisher) and seeded on poly-D-lysine-coated plates (Corning, NY, USA) under 5% CO2 at 37 °C for 6 days in vitro (DIV) prior to evaluation of HDAC6 inhibitors. Cells were treated with HDAC6 inhibitors at the indicated concentrations for 24 h and lysed in RIPA extraction buffer (50 mM Tris–HCl, 150 mM NaCl, 1% NP-40, 0.5% sodium deoxycholate, and 0.1% SDS, pH 8.0) supplemented with protease and phosphatase inhibitor cocktail (Thermo Fisher).
# Acetylated α-tubulin and total tubulin levels were measured by sandwich ELISA. Ninety six-well plates (Microlite2+, Thermo) were coated with α-tubulin capture antibody (1:100) by overnight incubation at 4 °C, washed 4 times with PBS'T, treated with blocking buffer (1% bovine serum albumin in PBS'T) at 37 °C for 2 h, and washed another 4 times with PBS’T. Cell or tissues lysate was added to the wells and plates were incubated at 37 °C for 2 h. Plates were then washed 4 times with PBST, incubated with a detection antibody for acetylated tubulin or total α-tubulin diluted in blocking buffer at 37℃ for 1 h, rewashed 4 more times with PBST, incubated with a mouse secondary antibody conjugated to horseradish peroxidase (HRP) for 30 min, wash 4 times again with PBST, and then incubated with chemiluminescent substrate (SuperSignal).
structure (smiles),measurement,setting,value
"O=C1c2cc(-c3nnc(C(F)F)o3)cnc2CN1[C@@H]1CCCC[C@H]1NC(=O)C(F)(F)C(F)(F)F [T-518, N-[(1R,2R)-2-{3-[5-(difluoromethyl)-1,3,4-oxadiazol-2-yl]-5-oxo-5H,6H,7H-pyrrolo[3,4-b]pyridin-6-yl}cyclohexyl]-2,2,3,3,3-pentafluoropropanamide]","inhibition of HDAC1‒5, 7‒9, and 11 in HDAC panel",[1],does not inhibit
same,tubulin acetylation in HDAC6 KO mice,[2]; 27-week-old male HDAC6 KO mice,had no effect
same,tubulin acetylation in WT mice,[2]; 27-week-old male WT mice,significantly elevated tubulin acetylation
same,effect on tubulin acetylation,"[3]; DIV6 mouse primary neural culture, 0.1–10 μM, ELISA",significantly and concentration-dependently elevates tubulin acetylation
same,concentration at which elevation of tubulin acetylation is statistically significant,[3]; mouse neurons,≥ 0.1 µM
